Source: publication PMC3407089, “Influence of GABAA Receptor α Subunit Isoforms on the Benzodiazepine Binding Site” (PLoS ONE, 2012)

Key:
[1] = tested on: α6N204Cβ2γ2 GABAA receptor; test: Covalent reaction at the functional level (two-electrode voltage clamp, Xenopus oocytes); type: cell-based; conditions: 1 µM Abecarnil at GABA EC2–5, naive oocytes
Experimental: (§1) Capped cRNAs were synthesized (Ambion, Austin, TX, USA) from the linearized plasmids with a cytomegalovirus promotor (pCMVvectors) containing the different subunits, respectively. A poly-A tail of about 400 residues was added to each transcript using yeast poly- A polymerase (United States Biologicals, Cleveland, OH, USA). The concentration of the cRNA was quantified on a formaldehyde gel using Radiant Red stain (Bio-Rad) for visualization of the RNA. Known concentrations of RNA ladder (Invitrogen) were loaded as standard on the same gel. cRNAs were precipitated in ethanol/isoamylalcohol 19∶ 1, the dried pellet dissolved in water and stored at −80°C. cRNA mixtures were prepared from these stock solutions and stored at −80°C. Xenopus laevis oocytes were prepared, injected and defolliculated as described previously, [39]. They were injected with 50 nL of the cRNA solution containing wild type or mutated α1 or α2, α3, α5, α6 and wild type β2 and γ2 subunits at a concentration of 10 nM : 10 nM : 50 nM [40] and then incubated in modified Barth’s solution at +18°C for at least 24 h before the measurements.
(§2) Currents were measured using a modified two-electrode voltage clamp amplifier Oocyte clamp OC-725 (Warner Instruments) in combination with a XY-recorder (90% response time 0.1s) or digitized at 100 Hz using a PowerLab 2/20 (AD Instruments) using the computer programs Chart (ADInstruments GmbH, Spechbach, Germany). Tests with a model oocyte were performed to ensure linearity in the larger current range. The response was linear up to 15 µA.
(§3) Electrophysiological experiments were performed by using the two-electrode voltage clamp method at a holding potential of −80 mV. The perfusion medium contained 90 mM NaCl, 1 mM KCl, 1 mM MgCl2, 1 mM CaCl2, and 5 mM Na-HEPES (pH 7.4) and was applied by gravity flow 6 ml/min. The perfusion medium was applied through a glass capillary with an inner diameter of 1.35 mm, the mouth of which was placed about 0.4 mm from the surface of the oocyte. Allosteric modulation via the benzodiazepine site was measured at a GABA concentration eliciting 2–5% of the maximal GABA current amplitude. GABA was applied for 20 s alone or in combination with allosteric compound. 6 ml of the covalent reacting compound was applied to the oocyte and incubated for 3 min while stopping the flow of the perfusion medium. Modulation of GABA currents was expressed as (I(modulator + GABA)/IGABA –1) * 100%. The perfusion system was cleaned between drug applications by washing with DMSO to avoid contamination.

[2] = tested on: α6S203Cβ2γ2 GABAA receptor; test: as above; type: cell-based; conditions: 1 µM Abecarnil at GABA EC2–5, naive oocytes
Experimental: as §1, §2, §3

α6 containing receptors = tested on: T1, α6 containing receptors; test: Functional modulation of GABA currents (Xenopus oocytes); type: cell-based; conditions: functional level
T1 construct: expressed in transfected cells; host or cells: Xenopus laevis oocytes (cRNA injection)
Experimental: as §1, with “Xenopus laevis oocytes were prepared, injected and defolliculated as described previously, [39]. They were injected with 50 nL of the cRNA solution containing wild type or mutated α1 or α2, α3, α5, α6 and wild type β2 and γ2 subunits at a concentration of 10 nM : 10 nM : 50 nM [40] and then incubated in modified Barth’s solution at +18°C for at least 24 h before the measurements.” left out
as §2, with “Tests with a model oocyte were performed to ensure linearity in the larger current range. The response was linear up to 15 µA.” left out
Electrophysiological experiments were performed by using the two-electrode voltage clamp method at a holding potential of −80 mV. […] Allosteric modulation via the benzodiazepine site was measured at a GABA concentration eliciting 2–5% of the maximal GABA current amplitude. […] Modulation of GABA currents was expressed as (I(modulator + GABA)/IGABA –1) * 100%. […]

[3] = tested on: T2, α5T210Cβ2γ2 GABAA receptor; test: Covalent reaction at the functional level (two-electrode voltage clamp, Xenopus oocytes); type: cell-based; conditions: 1 µM diazepam at GABA EC2–5, naive oocytes
T2 construct: expressed in transfected cells; host or cells: Xenopus laevis oocytes (cRNA injection)
Experimental: as §1, §2, §3

[4] = tested on: α5S209Cβ2γ2 GABAA receptor; test: as above; type: cell-based; conditions: 1 µM diazepam at GABA EC2–5, naive oocytes
Experimental: as §1, §2, §3

[5] = tested on: α1S204Cβ2γ2 GABAA receptor; test: as above; type: cell-based; conditions: 1 µM diazepam at GABA EC2–5, naive oocytes
Experimental: as §1, §2, §3

[6] = tested on: α5T208Cβ2γ2 GABAA receptor; test: as above; type: cell-based; conditions: 1 µM diazepam at GABA EC2–5, naive oocytes
Experimental: as §1, §2, §3

[7] = tested on: α3S230Cβ2γ2 GABAA receptor; test: as above; type: cell-based; conditions: 1 µM diazepam at GABA EC2–5, naive oocytes
Experimental: as §1, §2, §3

[8] = tested on: α3T231Cβ2γ2 GABAA receptor; test: as above; type: cell-based; conditions: 1 µM diazepam at GABA EC2–5, naive oocytes
Experimental: as §1, §2, §3

α6T205Cβ2γ2 receptor = target: T3, α6T205Cβ2γ2 receptor (Rattus norvegicus, UniProt P18508+P30191, T224C); test: Affinity estimate with [^3H]Ro15–4513; type: binding; conditions: read-out: Estimated affinity
T3 construct: expressed in transfected cells; host or cells: HEK293 cells (ATCC CRL 1573), membranes
Experimental: (§4) cDNAs coding for the αx (x = 1, 2, 3, 6), β2, and γ2S subunits DNA (20 µg : 20 µg : 20 µg) per 9 cm diameter dish were transfected in human embryonic kidney (HEK) 293 cells (American Type of Culture Collection, MD, USA, CRL 1573) using the calcium phosphate precipitation technique. For α5 containing receptors β2 was replaced by β1. […] Culturing of cells and membrane preparation were done as described before.
(§5) The properties of the recombinant mutant receptors were only estimated. For this affinity estimate, membranes were re-suspended in phosphate buffer using a Teflon homogenizer. They were incubated in a total volume of 360 µl for 1 h on ice in the presence of [^3H]Ro15–1788 (78.6 Ci/mmol; PerkinElmer Life Sciences). The final protein concentration was 0.1–1 mg of protein/ml. Total binding was measured at 0.5 and 5 nM [^3H]Ro15–1788. Nonspecific binding was determined under the same condition but in the presence of 100 µM unlabeled Ro15–1788 and amounted to less than 10% of total binding, except for α2S206Cβ2γ2 and α5T208Cβ2γ2 where it amounted to 10–17%. Expression levels of α6β2γ2 receptors were estimated with [^3H]Ro15–4513. Membranes were collected by rapid vacuum filtration on GF/C filters. After three washing steps (3 sec each) with 5 ml of phosphate buffer, the filter-retained radioactivity was determined by liquid scintillation counting.

α2G207Cβ2γ2 receptors = tested on: T4, α2G207Cβ2γ2 receptors; test: Radioactive ligand binding; conditions: not shown
T4 construct: expressed in transfected cells; host or cells: HEK293 cells (ATCC CRL 1573), membranes
Experimental: as §4, §5

α1G207Cβ2γ2 receptors = tested on: T5, α1G207Cβ2γ2 receptors; test: Radioactive ligand binding; conditions: not shown
T5 construct: expressed in transfected cells; host or cells: HEK293 cells (ATCC CRL 1573), membranes
Experimental: as §4, §5

T3 sequence (P30191 20-453 T224C): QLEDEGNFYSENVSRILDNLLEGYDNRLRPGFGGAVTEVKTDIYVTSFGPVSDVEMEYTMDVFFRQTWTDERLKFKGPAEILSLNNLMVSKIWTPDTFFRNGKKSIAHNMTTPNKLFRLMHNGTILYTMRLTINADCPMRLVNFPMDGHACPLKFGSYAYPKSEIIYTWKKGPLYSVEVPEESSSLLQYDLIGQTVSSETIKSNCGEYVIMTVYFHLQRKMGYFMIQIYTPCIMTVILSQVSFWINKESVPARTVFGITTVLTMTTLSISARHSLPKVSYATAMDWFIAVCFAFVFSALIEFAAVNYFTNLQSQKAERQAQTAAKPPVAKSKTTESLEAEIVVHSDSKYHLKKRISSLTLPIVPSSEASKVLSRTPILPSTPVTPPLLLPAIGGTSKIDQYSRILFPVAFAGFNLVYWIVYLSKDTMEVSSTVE
T3 sequence (P63138 25-474 partner limits assumed): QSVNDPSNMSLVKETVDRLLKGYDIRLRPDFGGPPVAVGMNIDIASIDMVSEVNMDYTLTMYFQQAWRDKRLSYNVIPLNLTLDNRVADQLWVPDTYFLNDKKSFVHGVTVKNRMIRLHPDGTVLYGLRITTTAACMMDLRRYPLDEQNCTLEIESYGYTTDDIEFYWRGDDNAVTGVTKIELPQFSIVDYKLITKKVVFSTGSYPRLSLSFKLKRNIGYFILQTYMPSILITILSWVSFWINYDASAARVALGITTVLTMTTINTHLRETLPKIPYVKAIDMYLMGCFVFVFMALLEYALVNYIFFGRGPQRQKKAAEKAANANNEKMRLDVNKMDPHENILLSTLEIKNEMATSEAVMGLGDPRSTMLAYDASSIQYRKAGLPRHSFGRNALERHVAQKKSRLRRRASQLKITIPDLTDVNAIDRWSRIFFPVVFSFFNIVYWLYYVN
T3 sequence (P18508 39-466): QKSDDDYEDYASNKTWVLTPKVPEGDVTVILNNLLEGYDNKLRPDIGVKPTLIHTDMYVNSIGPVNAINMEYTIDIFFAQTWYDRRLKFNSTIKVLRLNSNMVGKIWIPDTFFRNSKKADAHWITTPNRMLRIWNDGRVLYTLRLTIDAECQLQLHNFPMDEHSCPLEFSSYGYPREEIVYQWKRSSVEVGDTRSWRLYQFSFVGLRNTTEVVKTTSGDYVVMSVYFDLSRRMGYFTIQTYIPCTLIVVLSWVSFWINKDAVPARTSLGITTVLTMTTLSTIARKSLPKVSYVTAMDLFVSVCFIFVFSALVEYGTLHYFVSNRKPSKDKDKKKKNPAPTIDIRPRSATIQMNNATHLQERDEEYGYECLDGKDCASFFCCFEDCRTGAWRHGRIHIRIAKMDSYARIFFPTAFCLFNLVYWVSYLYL

## COCc1c(C(=O)OC(C)C)ncc2[nH]c3ccc(OCc4ccccc4)cc3c12 [Abecarnil, reference compound]
[1]
  % allosteric modulation, DZ (*1µM Abecarnil was used): 70±40 %
[2]
  % allosteric modulation, DZ (*1µM Abecarnil was used): 50±20 %

## CN1C(=O)CN=C(c2ccccc2)c2cc(Cl)ccc21 [DZ, diazepam, reference compound]
α6 containing receptors
  Response to diazepam (in words): did not respond
[3]
  % allosteric modulation, DZ: 82±14%
[4]
  % allosteric modulation, DZ: 103±3%
[5]
  % allosteric modulation, DZ: 126±9%
[6]
  % allosteric modulation, DZ: 129±38%
[7]
  % allosteric modulation, DZ: 149±44%
[8]
  % allosteric modulation, DZ: 88±45%

## CCOC(=O)c1ncn2c1CN(C)C(=O)c1cc(N=[N+]=[N-])ccc1-2 [[^3H]Ro15–4513]
α6T205Cβ2γ2 receptor
  Kd: 4 nM

## CCOC(=O)c1ncn2c1CN(C)C(=O)c1cc(F)ccc1-2 [[^3H]Ro 15–1788]
α2G207Cβ2γ2 receptors
  High affinity binding (in words): did not confer to the expressed receptors high affinity
α1G207Cβ2γ2 receptors
  High affinity binding (in words): did not confer to the expressed receptors high affinity

## CN1C(=O)CN=C(c2ccccc2F)c2cc([N+](=O)[O-])ccc21 [[^3H]flunitrazepam, flunitrazepam]
α2G207Cβ2γ2 receptors
  High affinity binding (in words): did not confer to the expressed receptors high affinity
α1G207Cβ2γ2 receptors
  High affinity binding (in words): did not confer to the expressed receptors high affinity
